Laboratory results: patent US6737383B1, “Herbicidal oxadiazolidines” (priority 1999, dated 2004)

Assays:
cotton = experiment: Test C postemergence cotton; format: in vivo, Gossypium hirsutum; conditions: 0 to 100 scale, 0 no effect, 100 complete control
Description: (§1) Compounds evaluated in this test were formulated in a non-phytotoxic solvent mixture which included a surfactant and applied to plants that were grown for various periods of time before treatment (postemergence application). A mixture of sandy loam soil and greenhouse potting mix in a 60:40 ratio was used for the postemergence test.
Plantings of these crops and weed species were adjusted to produce plants of appropriate size for the postemergence test. All plant species were grown using normal greenhouse practices. Crop and weed species include arrowleaf sida (Sida rhombifolia), barnyardgrass (Echinochloa crus-galli), cocklebur (Xanthium strumarium), common ragweed (Ambrosia elatior), corn (Zea mays), cotton (Gossypium hirsutum), eastern black nightshade (Solanum ptycanthum), fall panicum (Panicum dichotomiflorum), field bindweed (Convolvulus arvensis), giant foxtail (Setaria faberii), hairy beggarticks (Bidens pilosa), ivyleaf morningglory (Ipomoea hederacea), johnsongrass (Sorghum halepense), ladysthumb smartweed (Polygonum persicaria), lambsquarters (Chenopodium album), large crabgrass (Digitaria sanguinalis), purple nutsedge (Cyperus rotundus), redroot pigweed (Amaranthus retroflexus), soybean (Glycine max), surinam grass (Brachiaria decumbens), velvetleaf (Abutilon theophrasti) and wild poinsettia (Euphorbia heterophylla).
Treated plants and untreated controls were maintained in a greenhouse for approximately 14, to 21 days, after which all treated plants were compared to untreated controls and visually evaluated. Plant response ratings, summarized in Table C, were based upon a 0 to 100 scale where 0 was no effect and 100 was complete control. A dash response (−) means no test result.

blackgrass = experiment: Test E blackgrass; format: in vivo, Alopecurus myosuroides; conditions: Postemergence; for Plant response rating, Blackgrass: 0 to 100 scale; for Blackgrass plant response rating: Rate 250 g/ha, 0 to 100 scale where 0 is no effect and 100 is complete control
Description: as §1, with “in the 1- to 4-leaf stage” for “grown for various periods of time before treatment”
(§2) Plantings of these crops and weed species were adjusted to produce plants of appropriate size for the postemergence test. All plant species were grown using normal greenhouse practices. Crop and weed species include annual bluegrass (Poa annua), blackgrass (Alopecurus myosuroides), black nightshade (Solanum nigra), chickweed (Stellaria media), common poppy (Papaver rhoeas), deadnettle (Lamium amplexicaule), downy brome (Bromus tectorum), field violet (Viola arvensis), galium (Galium aparine), green foxtail (Setaria viridis), Italian ryegrass (Lolium multiflorum), jointed goatgrass (Aegilops cylindrica), kochia (Kochia scoparia), lambsquarters (Chenopodium album), littleseed canarygrass (Phalaris minor), rape (Brassica napus), redroot pigweed (Amaranthus retroflexus), Russian thistle (Salsola kali), scentless chamomile (Matricaria inodora), spring barley (Hordeum vulgare), sugar beet (Beta vulgaris), sunflower (Helianthus annuus), ivyleaf speedwell (Veronica hederaefolia), spring wheat (Triticum aestivum), winter wheat (Triticum aestivum), wild buckwheat (Polygonum convolvulus), wild mustard (Sinapis arvensis), wild oat (Avena fatua), windgrass (Apera spica-venti) and winter barley (Hordeum vulgare).
(§3) Treated plants and untreated controls were maintained in a greenhouse for approximately 21 to 28 days, after which all treated plants were compared to untreated controls and visually evaluated. […] A dash response (-) means no test result.

black nightshade [1] = experiment: Test E black nightshade; format: in vivo, Solanum nigra; conditions: Postemergence; for Plant response rating, Blk nightshade: 0 to 100 scale; for Blk nightshade plant response rating: Rate 250 g/ha, 0 to 100 scale where 0 is no effect and 100 is complete control
Description: as §1, with “in the 1- to 4-leaf stage” for “grown for various periods of time before treatment”
as §2, §3

common poppy = experiment: Test E common poppy; format: in vivo, Papaver rhoeas; conditions: Postemergence; for Common poppy plant response rating: Rate 250 g/ha, 0 to 100 scale where 0 is no effect and 100 is complete control
Description: as §1, with “in the 1- to 4-leaf stage” for “grown for various periods of time before treatment”
as §2, §3

field violet [2] = experiment: Test E field violet; format: in vivo, Viola arvensis; conditions: Postemergence; for Plant response rating, Field violet: 0 to 100 scale; for Field violet plant response rating: Rate 250 g/ha, 0 to 100 scale where 0 is no effect and 100 is complete control
Summary of the method: (§4)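 Compounds formulated in non-phytotoxic solvent mixture with surfactant; for postemergence, sprayed on plants at 1- to 4-leaf stage grown in 60:40 sandy loam/greenhouse potting mix. Kept in greenhouse ~21 to 28 days, then visually rated against untreated controls.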

Italian ryegrass = experiment: Test E Italian ryegrass; format: in vivo, Lolium multiflorum; conditions: Postemergence; for Plant response rating, I. Ryegrass: 0 to 100 scale; for I. Ryegrass plant response rating: Rate 250 g/ha, 0 to 100 scale where 0 is no effect and 100 is complete control
Summary of the method: as §4

kochia = experiment: Test E kochia; format: in vivo, Kochia scoparia; conditions: Postemergence; for Plant response rating, Kochia: 0 to 100 scale; for Kochia plant response rating: Rate 250 g/ha, 0 to 100 scale where 0 is no effect and 100 is complete control
Summary of the method: as §4

lambsquarters = experiment: Test E lambsquarters; format: in vivo, Chenopodium album; conditions: Postemergence; for Plant response rating Lambsquarters: 0 to 100 scale; for Lambsquarters plant response rating: Rate 250 g/ha, 0 to 100 scale where 0 is no effect and 100 is complete control
Summary of the method: as §4

scentless chamomile = experiment: Test E scentless chamomile; format: in vivo, Matricaria inodora; conditions: Postemergence; for Plant response rating, Scentless chamo: 0 to 100 scale; for Scentless chamo plant response rating: Rate 250 g/ha, 0 to 100 scale where 0 is no effect and 100 is complete control
Description: as §1, with “in the 1- to 4-leaf stage” for “grown for various periods of time before treatment”
as §2, §3

windgrass = experiment: Test E windgrass; format: in vivo, Apera spica-venti; conditions: Postemergence; for Plant response rating, Windgrass: 0 to 100 scale
Summary of the method: as §4

itchgrass = experiment: Test D itchgrass; format: in vivo, Rottboellia exaltata; conditions: Postemergence, 0 to 100 scale
sandbur = experiment: Test D sandbur; format: in vivo, Cenchrus echinatus; conditions: Postemergence, 0 to 100 scale
black nightshade [3] = experiment: Test E black nightshade; format: in vivo, Solanum nigra; conditions: Preemergence; for Blk nightshade plant response rating (0 to 100 scale): Rate 250 g/ha
deadnettle = experiment: Test E deadnettle; format: in vivo, Lamium amplexicaule; conditions: Preemergence; for Deadnettle plant response rating (0 to 100 scale): Rate 250 g/ha
field violet [4] = experiment: Test E field violet; format: in vivo, Viola arvensis; conditions: Preemergence; for Field violet plant response rating (0 to 100 scale): Rate 250 g/ha
spring barley = experiment: Test E spring barley; format: in vivo, Hordeum vulgare; conditions: Preemergence; for Spring Barley plant response rating (0 to 100 scale): Rate 250 g/ha
sunflower = experiment: Test E sunflower; format: in vivo, Helianthus annuus; conditions: Preemergence; for Sunflower plant response rating (0 to 100 scale): Rate 250 g/ha
spring wheat = experiment: Test E spring wheat; format: in vivo, Triticum aestivum; conditions: Preemergence; for Spring Wheat plant response rating (0 to 100 scale): Rate 250 g/ha
[5] = Rate 125 g/ha, 0 is no effect, 100 is complete control
[6] = Rate 500 g/ha, 0 is no effect, 100 is complete control
[7] = Rate 16 g/ha, 0 no injury, 100 complete control
[8] = Rate 32 g/ha, 0 no injury, 100 complete control
[9] = Rate 64 g/ha, 0 no injury, 100 complete control
[10] = Rate 125 g/ha, 0 no injury, 100 complete control
[11] = Rate 125 g/ha, 0 to 100 scale (0 no effect, 100 complete control)
[12] = Rate 500 g/ha, 0 to 100 scale where 0 is no effect and 100 is complete control

Structure (SMILES): CC(C)N(C(=O)n1oc(=O)n(C2CC2)c1=O)c1ccc(F)cc1 [Compound 242]
- Plant response rating Cotton (cotton; Rate 140 g/ha): 0
- Plant response rating Cotton (cotton; Rate 280 g/ha): 20
- Plant response rating Cotton (cotton; Rate 560 g/ha): 45
- Plant response rating Cotton (cotton; Rate 1120 g/ha): 70
- Plant response rating, Blackgrass (blackgrass; Rate 62 g/ha): 60
- Plant response rating, Blackgrass (blackgrass; [5]): 0
- Blackgrass plant response rating (blackgrass): 10
- Plant response rating, Blackgrass (blackgrass; [6]): 50
- Plant response rating, Blk nightshade (black nightshade [1]; Rate 62 g/ha): 60
- Plant response rating, Blk nightshade (black nightshade [1]; [5]): 30
- Blk nightshade plant response rating (black nightshade [1]): 50
- Plant response rating, Blk nightshade (black nightshade [1]; [6]): 75
- Plant response rating, Common poppy (common poppy; Rate 62 g/ha, 0 to 100 scale): 55
- Plant response rating, Common poppy (common poppy; Rate 125 g/ha, 0 to 100 scale, 0 is no effect, 100 is complete control): 40
- Common poppy plant response rating (common poppy): 20
- Plant response rating, Common poppy (common poppy; Rate 500 g/ha, 0 to 100 scale, 0 is no effect, 100 is complete control): 0
- Plant response rating, Field violet (field violet [2]; Rate 62 g/ha): 30
- Plant response rating, Field violet (field violet [2]; [5]): 60
- Field violet plant response rating (field violet [2]): 0
- Plant response rating, Field violet (field violet [2]; [6]): 40
- Plant response rating, I. Ryegrass (Italian ryegrass; Rate 62 g/ha): 50
- Plant response rating, I. Ryegrass (Italian ryegrass; [5]): 0
- I. Ryegrass plant response rating (Italian ryegrass): 70
- Plant response rating, I. Ryegrass (Italian ryegrass; [6]): 60
- Plant response rating, Kochia (kochia; Rate 62 g/ha): 20
- Plant response rating, Kochia (kochia; [5]): 60
- Kochia plant response rating (kochia): 0
- Plant response rating, Kochia (kochia; [6]): 20
- Plant response rating Lambsquarters (lambsquarters; Rate 62 g/ha): 10
- Plant response rating Lambsquarters (lambsquarters; [5]): 0
- Lambsquarters plant response rating (lambsquarters): 0
- Plant response rating Lambsquarters (lambsquarters; [6]): 0
- Plant response rating, Scentless chamo (scentless chamomile; Rate 62 g/ha): 55
- Plant response rating, Scentless chamo (scentless chamomile; [5]): 40
- Scentless chamo plant response rating (scentless chamomile): 0
- Plant response rating, Scentless chamo (scentless chamomile; [6]): 20
- Plant response rating, Windgrass (windgrass; Rate 62 g/ha): 90
- Plant response rating, Windgrass (windgrass; [5]): 95
- Plant response rating, Windgrass (windgrass; [6]): 95
- Plant response rating, Itchgrass (itchgrass; [7]): 0
- Plant response rating, Itchgrass (itchgrass; [8]): 0
- Plant response rating, Itchgrass (itchgrass; [9]): 40
- Plant response rating, Itchgrass (itchgrass; [10]): 80
- Plant response rating, Itchgrass (itchgrass; Rate 250 g/ha): 100
- Plant response rating, Sandbur (sandbur; [7]): 20
- Plant response rating, Sandbur (sandbur; [8]): 30
- Sandbur plant response rating (sandbur; [9]): 50
- Sandbur plant response rating (sandbur; [10]): 100
- Plant response rating, Sandbur (sandbur; Rate 250 g/ha): 100
- Plant response rating, Blk nightshade (black nightshade [3]; [11]): 70
- Blk nightshade plant response rating (0 to 100 scale) (black nightshade [3]): 95
- Plant response rating, Blk nightshade (black nightshade [3]; [12]): 95
- Deadnettle plant response rating (0 to 100 scale) (deadnettle): 70
- Plant response rating, Deadnettle (deadnettle; [12]): 100
- Plant response rating, Field violet (field violet [4]; [11]): 50
- Field violet plant response rating (0 to 100 scale) (field violet [4]): 65
- Plant response rating, Field violet (field violet [4]; [12]): 100
- Plant response rating, Spring Barley (spring barley; [11]): 60
- Spring Barley plant response rating (0 to 100 scale) (spring barley): 70
- Plant response rating, Spring Barley (spring barley; [12]): 85
- Plant response rating, Sunflower (sunflower; [11]): 55
- Sunflower plant response rating (0 to 100 scale) (sunflower): 70
- Plant response rating, Sunflower (sunflower; [12]): 60
- Plant response rating, Spring Wheat (spring wheat; [11]): 55
- Spring Wheat plant response rating (0 to 100 scale) (spring wheat): 60
- Plant response rating, Spring Wheat (spring wheat; [12]): 100

Structure (SMILES): CC(C)N(C(=O)n1oc(=O)n(C)c1=O)c1ccc(F)cc1 [Compound 138]
- Plant response rating Cotton (cotton; Rate 140 g/ha): 5
- Plant response rating Cotton (cotton; Rate 280 g/ha): 30
- Plant response rating Cotton (cotton; Rate 560 g/ha): 40
- Plant response rating Cotton (cotton; Rate 1120 g/ha): 70
- Plant response rating, Blackgrass (blackgrass; Rate 125 g/ha): 20
- Blackgrass plant response rating (blackgrass): 0
- Plant response rating, Blk nightshade (black nightshade [1]; Rate 125 g/ha): 20
- Blk nightshade plant response rating (black nightshade [1]): 60
- Plant response rating, Comnion poppy (common poppy; Rate 125 g/ha, 0 to 100 scale): 20
- Common poppy plant response rating (common poppy): 40
- Plant response rating, Field violet (field violet [2]; Rate 125 g/ha): 10
- Field violet plant response rating (field violet [2]): 30
- Plant response rating, I. Ryegrass (Italian ryegrass; Rate 125 g/ha): 0
- I. Ryegrass plant response rating (Italian ryegrass): 0
- Plant response rating, Kochia (kochia; Rate 125 g/ha): 15
- Kochia plant response rating (kochia): 0
- Plant response rating Lambsquarters (lambsquarters; Rate 125 g/ha): 10
- Lambsquarters plant response rating (lambsquarters): 30
- Plant response rating, Scentless chamo (scentless chamomile; Rate 125 g/ha): 20
- Scentless chamo plant response rating (scentless chamomile): 0
- Windgrass plant response rating (windgrass; Rate 250 g/ha, 0 to 100 scale where 0 is no effect and 100 is complete control): 95
- Plant response rating, Blk nightshade (black nightshade [3]; [11]): 85
- Blk nightshade plant response rating (0 to 100 scale) (black nightshade [3]): 95
- Plant response rating, Deadnettle (deadnettle; [11]): 65
- Deadnettle plant response rating (0 to 100 scale) (deadnettle): 70
- Plant response rating, Field violet (field violet [4]; [11]): 50
- Field violet plant response rating (0 to 100 scale) (field violet [4]): 70
- Plant response rating, Spring Barley (spring barley; [11]): 60
- Spring Barley plant response rating (0 to 100 scale) (spring barley): 90
- Plant response rating, Sunflower (sunflower; [11]): 55
- Sunflower plant response rating (0 to 100 scale) (sunflower): 60
- Plant response rating, Spring Wheat (spring wheat; [11]): 55
- Spring Wheat plant response rating (0 to 100 scale) (spring wheat): 100

Structure (SMILES): CC(C)N(C(=O)n1oc(=O)n(C2CCCCCC2)c1=O)c1ccc(F)cc1F [Compound 342]
- Plant response rating, Itchgrass (itchgrass; [7]): 0
- Plant response rating, Itchgrass (itchgrass; [8]): 0
- Plant response rating, Itchgrass (itchgrass; [9]): 0
- Plant response rating, Itchgrass (itchgrass; [10]): 0
- Plant response rating, Itchgrass (itchgrass; Rate 250 g/ha): 0
- Plant response rating, Sandbur (sandbur; [7]): 0
- Plant response rating, Sandbur (sandbur; [8]): 0
- Sandbur plant response rating (sandbur; [9]): 0
- Plant response rating, Sandbur (sandbur; Rate 250 g/ha): 0
